For `NC(=O)c1ccncc1`, the solubility (mole fraction) (in DMAc, 278.15 K) was 0.114, the solubility (mole fraction) (in DMAc, 283.15 K) was 0.129 and the solubility (mole fraction) (in DMAc, 288.15 K) was 0.147. It also gave a solubility (mole fraction) (in DMAc, 293.15 K) of 0.168, a solubility (mole fraction) (in DMAc, 298.15 K) of 0.19 and a solubility (mole fraction) (in DMAc, 303.15 K) of 0.213. The solubility (mole fraction) (in DMAc, 308.15 K) was 0.236, the solubility (mole fraction) (in DMAc, 313.15 K) was 0.256 and the solubility (mole fraction) (in DMAc, 318.15 K) was 0.278. For the same compound, the solubility (mole fraction) (in DMAc, 323.15 K) was 0.299, the solubility (mole fraction) (in DMF, 278.15 K) was 0.13 and the solubility (mole fraction) (in DMF, 283.15 K) was 0.135. For the same compound, the solubility (mole fraction) (in DMF, 288.15 K) was 0.147, the solubility (mole fraction) (in DMF, 293.15 K) was 0.157 and the solubility (mole fraction) (in DMF, 298.15 K) was 0.17. The solubility (mole fraction) (in DMF, 303.15 K) was 0.181, the solubility (mole fraction) (in DMF, 308.15 K) was 0.193 and the solubility (mole fraction) (in DMF, 313.15 K) was 0.208. The solubility (mole fraction) (in DMF, 318.15 K) was 0.221, the solubility (mole fraction) (in DMF, 323.15 K) was 0.24 and the solubility (mole fraction) (in THF, 278.15 K) was 0.0108. It also gave a solubility (mole fraction) (in THF, 283.15 K) of 0.012, a solubility (mole fraction) (in THF, 288.15 K) of 0.0143 and a solubility (mole fraction) (in THF, 293.15 K) of 0.0167. It also gave a solubility (mole fraction) (in THF, 298.15 K) of 0.0194, a solubility (mole fraction) (in THF, 303.15 K) of 0.0218 and a solubility (mole fraction) (in THF, 308.15 K) of 0.0247. For the same compound, the solubility (mole fraction) (in THF, 313.15 K) was 0.0276, the solubility (mole fraction) (in THF, 318.15 K) was 0.0308 and the solubility (mole fraction) (in THF, 323.15 K) was 0.0344. For the same compound, the solubility (mole fraction) (in acetone, 278.15 K) was 0.00012, the solubility (mole fraction) (in acetone, 283.15 K) was 0.00014 and the solubility (mole fraction) (in acetone, 288.15 K) was 0.00017. It also gave a solubility (mole fraction) (in acetone, 293.15 K) of 0.00021, a solubility (mole fraction) (in acetone, 298.15 K) of 0.00025 and a solubility (mole fraction) (in acetone, 303.15 K) of 0.00029. It also gave a solubility (mole fraction) (in acetone, 308.15 K) of 0.00034, a solubility (mole fraction) (in acetone, 313.15 K) of 0.00039 and a solubility (mole fraction) (in acetone, 318.15 K) of 0.00047. The solubility (mole fraction) (in acetone, 323.15 K) was 0.00057, the solubility (mole fraction) (in acetonitrile, 278.15 K) was 0.00251 and the solubility (mole fraction) (in acetonitrile, 283.15 K) was 0.00313. For the same compound, the solubility (mole fraction) (in acetonitrile, 288.15 K) was 0.00392, the solubility (mole fraction) (in acetonitrile, 293.15 K) was 0.00473 and the solubility (mole fraction) (in acetonitrile, 298.15 K) was 0.00572. It also gave a solubility (mole fraction) (in acetonitrile, 303.15 K) of 0.00695, a solubility (mole fraction) (in acetonitrile, 308.15 K) of 0.00841 and a solubility (mole fraction) (in acetonitrile, 313.15 K) of 0.0102. The solubility (mole fraction) (in acetonitrile, 318.15 K) was 0.0125, the solubility (mole fraction) (in acetonitrile, 323.15 K) was 0.0152 and the solubility (mole fraction) (in ethanol, 278.15 K) was 0.0191. It also gave a solubility (mole fraction) (in ethanol, 283.15 K) of 0.0221, a solubility (mole fraction) (in ethanol, 288.15 K) of 0.0266 and a solubility (mole fraction) (in ethanol, 293.15 K) of 0.0307. For the same compound, the solubility (mole fraction) (in ethanol, 298.15 K) was 0.0347, the solubility (mole fraction) (in ethanol, 303.15 K) was 0.0407 and the solubility (mole fraction) (in ethanol, 308.15 K) was 0.0461. It also gave a solubility (mole fraction) (in ethanol, 313.15 K) of 0.0548, a solubility (mole fraction) (in ethanol, 318.15 K) of 0.0664 and a solubility (mole fraction) (in ethanol, 323.15 K) of 0.0796. For the same compound, the solubility (mole fraction) (in ethyl acetate, 278.15 K) was 0.00272, the solubility (mole fraction) (in ethyl acetate, 283.15 K) was 0.00341 and the solubility (mole fraction) (in ethyl acetate, 288.15 K) was 0.00414. It also gave a solubility (mole fraction) (in ethyl acetate, 293.15 K) of 0.00504, a solubility (mole fraction) (in ethyl acetate, 298.15 K) of 0.0062 and a solubility (mole fraction) (in ethyl acetate, 303.15 K) of 0.00754. It also gave a solubility (mole fraction) (in ethyl acetate, 308.15 K) of 0.0105, a solubility (mole fraction) (in ethyl acetate, 313.15 K) of 0.0138 and a solubility (mole fraction) (in ethyl acetate, 318.15 K) of 0.0172. For the same compound, the solubility (mole fraction) (in ethyl acetate, 323.15 K) was 0.0218, the solubility (mole fraction) (in isopropanol, 278.15 K) was 0.0156 and the solubility (mole fraction) (in isopropanol, 283.15 K) was 0.0182. For the same compound, the solubility (mole fraction) (in isopropanol, 288.15 K) was 0.0211, the solubility (mole fraction) (in isopropanol, 293.15 K) was 0.0253 and the solubility (mole fraction) (in isopropanol, 298.15 K) was 0.0291. For the same compound, the solubility (mole fraction) (in isopropanol, 303.15 K) was 0.034, the solubility (mole fraction) (in isopropanol, 308.15 K) was 0.0381 and the solubility (mole fraction) (in isopropanol, 313.15 K) was 0.0465. For the same compound, the solubility (mole fraction) (in isopropanol, 318.15 K) was 0.0559, the solubility (mole fraction) (in isopropanol, 323.15 K) was 0.0669 and the solubility (mole fraction) (in isopropyl acetate, 278.15 K) was 0.00204. For the same compound, the solubility (mole fraction) (in isopropyl acetate, 283.15 K) was 0.00217, the solubility (mole fraction) (in isopropyl acetate, 288.15 K) was 0.0025 and the solubility (mole fraction) (in isopropyl acetate, 293.15 K) was 0.00283. The solubility (mole fraction) (in isopropyl acetate, 298.15 K) was 0.00328, the solubility (mole fraction) (in isopropyl acetate, 303.15 K) was 0.00397 and the solubility (mole fraction) (in isopropyl acetate, 308.15 K) was 0.00505. It also gave a solubility (mole fraction) (in isopropyl acetate, 313.15 K) of 0.00616, a solubility (mole fraction) (in isopropyl acetate, 318.15 K) of 0.00734 and a solubility (mole fraction) (in isopropyl acetate, 323.15 K) of 0.00871. The solubility (mole fraction) (in methanol, 278.15 K) was 0.0336, the solubility (mole fraction) (in methanol, 283.15 K) was 0.0392 and the solubility (mole fraction) (in methanol, 288.15 K) was 0.0439. For the same compound, the solubility (mole fraction) (in methanol, 293.15 K) was 0.0515, the solubility (mole fraction) (in methanol, 298.15 K) was 0.0602 and the solubility (mole fraction) (in methanol, 303.15 K) was 0.0678. It also gave a solubility (mole fraction) (in methanol, 308.15 K) of 0.0773, a solubility (mole fraction) (in methanol, 313.15 K) of 0.0911 and a solubility (mole fraction) (in methanol, 318.15 K) of 0.103. For the same compound, the solubility (mole fraction) (in methanol, 323.15 K) was 0.122, the solubility (mole fraction) (in methyl acetate, 278.15 K) was 0.00372 and the solubility (mole fraction) (in methyl acetate, 283.15 K) was 0.00431. For the same compound, the solubility (mole fraction) (in methyl acetate, 288.15 K) was 0.00542, the solubility (mole fraction) (in methyl acetate, 293.15 K) was 0.00668 and the solubility (mole fraction) (in methyl acetate, 298.15 K) was 0.00826. The solubility (mole fraction) (in methyl acetate, 303.15 K) was 0.00969, the solubility (mole fraction) (in methyl acetate, 308.15 K) was 0.0127 and the solubility (mole fraction) (in methyl acetate, 313.15 K) was 0.0152. It also gave a solubility (mole fraction) (in methyl acetate, 318.15 K) of 0.0184, a solubility (mole fraction) (in methyl acetate, 323.15 K) of 0.0218 and a solubility (mole fraction) (in n-butanol, 278.15 K) of 0.0172. The solubility (mole fraction) (in n-butanol, 283.15 K) was 0.0189, the solubility (mole fraction) (in n-butanol, 288.15 K) was 0.022 and the solubility (mole fraction) (in n-butanol, 293.15 K) was 0.0248. It also gave a solubility (mole fraction) (in n-butanol, 298.15 K) of 0.0284, a solubility (mole fraction) (in n-butanol, 303.15 K) of 0.0319 and a solubility (mole fraction) (in n-butanol, 308.15 K) of 0.0359. It also gave a solubility (mole fraction) (in n-butanol, 313.15 K) of 0.041, a solubility (mole fraction) (in n-butanol, 318.15 K) of 0.0482 and a solubility (mole fraction) (in n-butanol, 323.15 K) of 0.0565. For the same compound, the solubility (mole fraction) (in n-pentanol, 278.15 K) was 0.0126, the solubility (mole fraction) (in n-pentanol, 283.15 K) was 0.0136 and the solubility (mole fraction) (in n-pentanol, 288.15 K) was 0.0152. For the same compound, the solubility (mole fraction) (in n-pentanol, 293.15 K) was 0.0177, the solubility (mole fraction) (in n-pentanol, 298.15 K) was 0.0204 and the solubility (mole fraction) (in n-pentanol, 303.15 K) was 0.0234. The solubility (mole fraction) (in n-pentanol, 308.15 K) was 0.0279, the solubility (mole fraction) (in n-pentanol, 313.15 K) was 0.033 and the solubility (mole fraction) (in n-pentanol, 318.15 K) was 0.039. For the same compound, the solubility (mole fraction) (in n-pentanol, 323.15 K) was 0.046, the solubility (mole fraction) (in n-propanol, 278.15 K) was 0.0218 and the solubility (mole fraction) (in n-propanol, 283.15 K) was 0.0242. For the same compound, the solubility (mole fraction) (in n-propanol, 288.15 K) was 0.0275, the solubility (mole fraction) (in n-propanol, 293.15 K) was 0.0324 and the solubility (mole fraction) (in n-propanol, 298.15 K) was 0.0374. It also gave a solubility (mole fraction) (in n-propanol, 303.15 K) of 0.0418, a solubility (mole fraction) (in n-propanol, 308.15 K) of 0.0455 and a solubility (mole fraction) (in n-propanol, 313.15 K) of 0.0541. For the same compound, the solubility (mole fraction) (in n-propanol, 318.15 K) was 0.0639, the solubility (mole fraction) (in n-propanol, 323.15 K) was 0.0764 and the solubility (mole fraction) (in n-propyl acetate, 278.15 K) was 0.00198. For the same compound, the solubility (mole fraction) (in n-propyl acetate, 283.15 K) was 0.00249, the solubility (mole fraction) (in n-propyl acetate, 288.15 K) was 0.00323 and the solubility (mole fraction) (in n-propyl acetate, 293.15 K) was 0.00404. The solubility (mole fraction) (in n-propyl acetate, 298.15 K) was 0.00494, the solubility (mole fraction) (in n-propyl acetate, 303.15 K) was 0.00615 and the solubility (mole fraction) (in n-propyl acetate, 308.15 K) was 0.0072. For the same compound, the solubility (mole fraction) (in n-propyl acetate, 313.15 K) was 0.00832, the solubility (mole fraction) (in n-propyl acetate, 318.15 K) was 0.00937 and the solubility (mole fraction) (in n-propyl acetate, 323.15 K) was 0.0109.

From BigSolDB 2.1
